Literature values in publication PMC11215690 (Clinical and Translational Science, 2024).

Tested on: healthy participants
Conditions: studies of healthy participants

Structure (SMILES)	most frequently reported TEAEs
O=C(c1nc2n(n1)[C@H](c1ccccc1)C[C@@H]2F)C1CC1 [GDC‐8264]	headache and skin reaction of contact dermatitis
CN1C(=O)[C@@H](NC(=O)c2nnc(Cc3ccccc3)[nH]2)COc2ccccc21 [GSK2982772]	headache and skin reaction of contact dermatitis
